These results are taken from PMC9596378, “Discovery and molecular basis of subtype-selective cyclophilin inhibitors” (Nature Chemical Biology, 2022).

Where two headings read alike, the source gives them in different places. Where only a bound is given, the exact number is not on record here.

Data set [1] addresses Cyp40 (Homo sapiens, UniProt Q08752). In words: Chymotrypsin coupled prolyl-isomerase assay. The method, then: (§1) Adapting a previously described protocol, with an Agilent Bravo Velocity 11 with a 384ST head, 90 µL assay buffer (25 mM HEPES pH 7.3, 100 mM NaCl, 0.01% Triton X-100) containing 5.28 nM cyclophilin was added into a flat, clear-bottom, black 384-well plate pre-chilled in a Corning CoolBox at 2–3 °C. Five microliters of compound pre-dissolved in 5% DMSO/assay buffer was then added to appropriate wells and incubated at 2–3 °C for 5 min. Five microliters of 0.5 mM α-chymotrypsin from bovine pancreas (Type II, lyophilized powder, Millipore-Sigma) in 20% 1 mM HCl/Assay Buffer was then added to each well and incubated at 2–3 °C for 5 min. The plate was then quickly transferred to a FLIPR Tetra High-Throughput Cellular Screening System (Molecular Devices). Using the internal liquid handling system of the FLIPR, 1 µL 0.5 mM Suc-AAPF-AMC (Chymotrypsin Substrate II, Millipore-Sigma) dissolved in 0.55 M LiCl/2,2,2-trifluoroethanol was added to each well, which was then mixed for 5 s, followed by immediate fluorescence measurements every 1 s for 330 s using a 360–380 nm excitation LED module and a 400–460 nm emission filter. Final concentrations of the plate include 5 nM cyclophilin, 0.25% DMSO, 25 µM α-chymotrypsin, 5 µM Suc-AAPF-AMC. Raw fluorescence data was analyzed by non-linear regression analysis with Prism v.9 by fitting one-phase association curves to each well. […] Rate constants calculated for each well (s^−1) were then normalized to substrate only (no prolyl-isomerase) and enzyme + substrate only controls. IC50 values were calculated as the value at which 50% inhibition was achieved on the non-linear regression fitted curve of each compound.

The target of data set [2] is T1, PPIL1 (Homo sapiens, UniProt Q9Y3C6).
T1 construct: PPIL1 (UniProtKB Entry Q9Y3C6: residues 1–166); made in house; host or cells: E. coli BL21(DE3)
T1 sequence (Q9Y3C6 1-166): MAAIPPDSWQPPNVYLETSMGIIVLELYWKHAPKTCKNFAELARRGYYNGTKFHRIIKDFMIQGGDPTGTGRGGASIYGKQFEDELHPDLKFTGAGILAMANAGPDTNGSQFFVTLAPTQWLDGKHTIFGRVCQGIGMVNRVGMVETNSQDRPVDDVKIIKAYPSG
In words: Chymotrypsin coupled prolyl-isomerase assay. The data set is classed as biochemical. Particulars: wild-type PPIL1; read-out: Wild-Type Cyclophilin Prolyl Isomerase Inhibition IC50 Values, PPIL1.

In data set [3] the target is T2, CypB (Homo sapiens, UniProt P23284).
T2 construct: PPIB (UniProtKB Entry P23284: residues 34–216); His6 with TEV site (2BT vector leader) (N); made in house; host or cells: E. coli BL21(DE3)
T2 sequence (P23284 34-216): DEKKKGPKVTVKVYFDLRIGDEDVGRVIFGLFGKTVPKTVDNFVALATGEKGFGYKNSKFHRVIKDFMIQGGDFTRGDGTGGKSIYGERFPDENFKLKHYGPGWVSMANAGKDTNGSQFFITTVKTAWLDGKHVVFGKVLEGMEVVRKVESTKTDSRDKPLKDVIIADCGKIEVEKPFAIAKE
The experiment in a line: biochemical. Particulars: wild-type CypB; read-out: Wild-Type Cyclophilin Prolyl Isomerase Inhibition IC50 Values, CypB. The method, then: as §1

The target in data set [4] is CypD (Homo sapiens, UniProt P30405). In words: Chymotrypsin coupled prolyl-isomerase assay. Particulars: read-out: IC50 CypD; prolyl-isomerase inhibition, 5 nM cyclophilin, Suc-AAPF-AMC; mean±s.e.m. of 3 technical replicates (B52, B53, C3A wild-type: mean±s.d. of 4 independent replicates). The method, then:
as §1, with “Five” for “Adapting a previously described protocol, with an Agilent Bravo Velocity 11 with a 384ST head, 90 µL assay buffer (25 mM HEPES pH 7.3, 100 mM NaCl, 0.01% Triton X-100) containing 5.28 nM cyclophilin was added into a flat, clear-bottom, black 384-well plate pre-chilled in a Corning CoolBox at 2–3 °C. Five”, “Final concentrations of the plate include 5 nM cyclophilin, 0.25% DMSO, 25 µM α-chymotrypsin, 5 µM Suc-AAPF-AMC.” left out, “controls.” for “controls. IC50 values were calculated as the value at which 50% inhibition was achieved on the non-linear regression fitted curve of each compound.”

Data set [5] has as its target T3, NKTR (Homo sapiens, UniProt P30414).
T3 construct: NKTR (UniProtKB Entry P30414: residues 7–179); host or cells: E. coli BL21(DE3)
T3 sequence (P30414 7-179): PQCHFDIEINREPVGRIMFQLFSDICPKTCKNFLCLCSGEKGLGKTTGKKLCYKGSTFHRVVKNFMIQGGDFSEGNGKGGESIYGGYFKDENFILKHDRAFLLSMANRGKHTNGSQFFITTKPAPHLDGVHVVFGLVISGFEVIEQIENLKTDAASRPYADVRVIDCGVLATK
The experiment in a line: Chymotrypsin coupled prolyl-isomerase assay. The data set is classed as biochemical.

Data set [6] deals with T4, PPWD1 (Homo sapiens, UniProt Q96BP3).
T4 construct: PPWD1 (UniProtKB Entry Q96BP3: residues 473–646); host or cells: E. coli BL21(DE3)
T4 sequence (Q96BP3 473-646): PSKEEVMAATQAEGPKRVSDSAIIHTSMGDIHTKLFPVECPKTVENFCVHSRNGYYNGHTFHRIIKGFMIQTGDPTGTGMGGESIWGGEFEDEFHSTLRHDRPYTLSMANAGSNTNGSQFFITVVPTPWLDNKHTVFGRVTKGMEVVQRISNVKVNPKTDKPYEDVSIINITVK
The experiment in a line: Chymotrypsin coupled prolyl-isomerase assay. The data set is classed as biochemical. As to conditions: wild-type PPWD1; read-out: Wild-Type Cyclophilin Prolyl Isomerase Inhibition IC50 Values, PPWD1.

Data set [7] deals with T5, CypC (Homo sapiens, UniProt P45877).
T5 construct: PPIC (UniProtKB Entry P45877: residues 24–212); host or cells: E. coli BL21(DE3)
T5 sequence (P45877 24-212): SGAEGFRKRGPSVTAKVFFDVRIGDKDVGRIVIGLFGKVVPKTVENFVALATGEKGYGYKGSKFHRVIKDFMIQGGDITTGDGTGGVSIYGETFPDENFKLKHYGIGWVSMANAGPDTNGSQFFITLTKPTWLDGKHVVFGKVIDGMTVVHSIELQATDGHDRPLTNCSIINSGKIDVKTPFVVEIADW
The experiment in a line: Chymotrypsin coupled prolyl-isomerase assay. The data set is classed as biochemical. Particulars: wild-type CypC; read-out: Wild-Type Cyclophilin Prolyl Isomerase Inhibition IC50 Values, CypC. How it is done:
as §1

Data set [8] has as its target T6, CypE (Homo sapiens, UniProt Q9UNP9).
T6 construct: PPIE (UniProtKB Entry Q9UNP9: residues 131–301); host or cells: E. coli BL21(DE3)
In words: Chymotrypsin coupled prolyl-isomerase assay. The data set is classed as biochemical. As to conditions: wild-type CypE; read-out: Wild-Type Cyclophilin Prolyl Isomerase Inhibition IC50 Values, CypE. The method, then:
as §1

Data set [9] concerns the target T7, CypG (Homo sapiens, UniProt Q13427).
T7 construct: PPIG (UniProtKB Entry Q13427: residues 1–179); His6 with thrombin site (pET28a LIC leader) (N); host or cells: E. coli BL21(DE3)
T7 sequence (Q13427 1-179): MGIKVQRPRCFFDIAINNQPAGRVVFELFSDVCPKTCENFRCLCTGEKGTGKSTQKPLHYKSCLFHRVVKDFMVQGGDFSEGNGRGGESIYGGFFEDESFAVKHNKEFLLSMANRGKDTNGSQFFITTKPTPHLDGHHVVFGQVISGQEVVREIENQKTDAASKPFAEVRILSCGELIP
In words: Chymotrypsin coupled prolyl-isomerase assay. The data set is classed as biochemical. As to conditions: wild-type CypG; read-out: Wild-Type Cyclophilin Prolyl Isomerase Inhibition IC50 Values, CypG. How it is done:
as §1

Data set [10] concerns the target T8, CypH (Homo sapiens, UniProt O43447).
T8 construct: PPIH (UniProtKB Entry O43447: residues 1–177); His6 with TEV site (2BT vector leader) (N); made in house; host or cells: E. coli BL21(DE3)
The experiment in a line: Chymotrypsin coupled prolyl-isomerase assay. The data set is classed as biochemical. Particulars: wild-type CypH; read-out: Wild-Type Cyclophilin Prolyl Isomerase Inhibition IC50 Values, CypH. How it is done: as §1

Data set [11] has as its target T9, CypA (Homo sapiens, UniProt P62937).
T9 construct: PPIA (UniProtKB Entry P62937: residues 1–165); made in house; host or cells: E. coli BL21(DE3)
In words: Chymotrypsin coupled prolyl-isomerase assay. The data set is classed as biochemical. Particulars: wild-type CypA; read-out: Wild-Type Cyclophilin Prolyl Isomerase Inhibition IC50 Values, CypA. How it is done: as §1

Data set [12] relates to HeLa cells. The experiment in a line: Fluorescence microscopy of Cy5-conjugated compounds. The data set is classed as cell-based, human. The method, then:
Cells were seeded into 96-well, black, clear-bottom, TC-treated plates, in DMEM supplemented with 10% FBS 24 h prior at a density where wells were ~80% confluent at the time of the experiment. Medium was removed and cells were then stained with 50 µL mixture containing Cy5-labeled compound (6 µM) in Kreb’s ringer solution HEPES buffered pH 7.2 (KRB), for 1 h at 37 °C. Then, 50 µL Hoechst 33342 (8 µM) and Mitotracker Green FM (0.1 µM) in KRB was added directly to wells containing cells and incubated for 15 min at 37 °C. Medium was removed and cells were washed twice with 100 µL KRB. Cells were then kept adherent to the wells in 100 µL KRB for imaging. Fluorescence microscopy was conducted on an Opera Phenix Plus High-Content Screening System, using Alexa 488, Alexa 647, and Hoescht 33342 channels. Images were analyzed using Harmony v.4.9.

Sequence of CypD (P30405 45-207): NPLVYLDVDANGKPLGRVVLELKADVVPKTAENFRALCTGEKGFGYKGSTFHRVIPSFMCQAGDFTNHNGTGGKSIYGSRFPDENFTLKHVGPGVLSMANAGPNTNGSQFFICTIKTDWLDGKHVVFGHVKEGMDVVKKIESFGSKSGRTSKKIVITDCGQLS
T8 sequence (O43447 whole entry, the tested form may be a part): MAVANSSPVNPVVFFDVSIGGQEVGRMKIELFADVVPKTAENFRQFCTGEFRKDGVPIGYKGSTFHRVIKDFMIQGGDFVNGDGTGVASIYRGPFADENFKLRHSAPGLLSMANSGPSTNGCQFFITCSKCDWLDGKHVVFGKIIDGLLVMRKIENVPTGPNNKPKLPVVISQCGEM
T6 sequence (Q9UNP9 131-301): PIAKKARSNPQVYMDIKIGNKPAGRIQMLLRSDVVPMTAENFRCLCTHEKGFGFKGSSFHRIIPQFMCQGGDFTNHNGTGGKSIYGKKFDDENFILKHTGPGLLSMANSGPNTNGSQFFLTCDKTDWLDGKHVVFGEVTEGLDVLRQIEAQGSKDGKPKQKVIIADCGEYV
Sequence of Cyp40 (Q08752 1-183): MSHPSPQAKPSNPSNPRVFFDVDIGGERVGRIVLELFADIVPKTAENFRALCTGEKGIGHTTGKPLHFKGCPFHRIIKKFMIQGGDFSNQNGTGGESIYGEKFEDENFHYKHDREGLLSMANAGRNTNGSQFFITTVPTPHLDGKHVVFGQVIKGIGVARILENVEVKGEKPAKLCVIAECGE
T9 sequence (P62937 whole entry, the tested form may be a part): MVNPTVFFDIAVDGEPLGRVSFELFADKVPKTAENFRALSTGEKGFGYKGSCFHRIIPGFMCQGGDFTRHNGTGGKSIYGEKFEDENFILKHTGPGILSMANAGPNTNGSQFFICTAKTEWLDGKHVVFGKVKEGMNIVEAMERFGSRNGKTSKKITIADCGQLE

On to `NCCOCCNC(=O)[C@@H]1CCNC(=O)/C=C/C(=O)N2CCC[C@](Cc3ccccc3)(C2)C(=O)N[C@@H](Cc2ccc(-c3ccc(/C=C/C(=O)O)cc3)cc2)C(=O)NCc2ccccc2CC(=O)N1` [Compound B24], for which the IC50 in data set [1] was 150 nM; in data set [2], 20 nM; in [3], 5 nM; in data set [4], 1.9 nM; in [5] (prolyl-isomerase inhibition, 5 nM cyclophilin, read-out: IC50 NKTR), around 13000 nM; in data set [5] (wild-type NKTR, read-out: Wild-Type Cyclophilin Prolyl Isomerase Inhibition IC50 Values, NKTR), 13000 nM. Further, the IC50 was 6000 nM in data set [6]; 1500 nM in data set [7]; 4 nM in data set [8]; 11000 nM in data set [9]; above 50000 nM in data set [10]; 10 nM in data set [11].
As to `CC(=O)NCCNC(=O)CCCCCN1\C(=C/C=C/C=C/C2=[N+](C)c3ccccc3C2(C)C)C(C)(C)c2ccccc21` [Cy5-enAc, reference compound], the “plasma membrane permeability / mitochondrial localization (in words)” value in data set [12] is recorded as “good mitochondrial localization”. In addition, the IC50 in data set [4] was above 2000 nM.

In general, IC50 refers to the midpoint of a concentration-inhibition curve.
